The target in the test is EGFR (UniProt P00533).
Sequence of EGFR (P00533 whole entry, looked up): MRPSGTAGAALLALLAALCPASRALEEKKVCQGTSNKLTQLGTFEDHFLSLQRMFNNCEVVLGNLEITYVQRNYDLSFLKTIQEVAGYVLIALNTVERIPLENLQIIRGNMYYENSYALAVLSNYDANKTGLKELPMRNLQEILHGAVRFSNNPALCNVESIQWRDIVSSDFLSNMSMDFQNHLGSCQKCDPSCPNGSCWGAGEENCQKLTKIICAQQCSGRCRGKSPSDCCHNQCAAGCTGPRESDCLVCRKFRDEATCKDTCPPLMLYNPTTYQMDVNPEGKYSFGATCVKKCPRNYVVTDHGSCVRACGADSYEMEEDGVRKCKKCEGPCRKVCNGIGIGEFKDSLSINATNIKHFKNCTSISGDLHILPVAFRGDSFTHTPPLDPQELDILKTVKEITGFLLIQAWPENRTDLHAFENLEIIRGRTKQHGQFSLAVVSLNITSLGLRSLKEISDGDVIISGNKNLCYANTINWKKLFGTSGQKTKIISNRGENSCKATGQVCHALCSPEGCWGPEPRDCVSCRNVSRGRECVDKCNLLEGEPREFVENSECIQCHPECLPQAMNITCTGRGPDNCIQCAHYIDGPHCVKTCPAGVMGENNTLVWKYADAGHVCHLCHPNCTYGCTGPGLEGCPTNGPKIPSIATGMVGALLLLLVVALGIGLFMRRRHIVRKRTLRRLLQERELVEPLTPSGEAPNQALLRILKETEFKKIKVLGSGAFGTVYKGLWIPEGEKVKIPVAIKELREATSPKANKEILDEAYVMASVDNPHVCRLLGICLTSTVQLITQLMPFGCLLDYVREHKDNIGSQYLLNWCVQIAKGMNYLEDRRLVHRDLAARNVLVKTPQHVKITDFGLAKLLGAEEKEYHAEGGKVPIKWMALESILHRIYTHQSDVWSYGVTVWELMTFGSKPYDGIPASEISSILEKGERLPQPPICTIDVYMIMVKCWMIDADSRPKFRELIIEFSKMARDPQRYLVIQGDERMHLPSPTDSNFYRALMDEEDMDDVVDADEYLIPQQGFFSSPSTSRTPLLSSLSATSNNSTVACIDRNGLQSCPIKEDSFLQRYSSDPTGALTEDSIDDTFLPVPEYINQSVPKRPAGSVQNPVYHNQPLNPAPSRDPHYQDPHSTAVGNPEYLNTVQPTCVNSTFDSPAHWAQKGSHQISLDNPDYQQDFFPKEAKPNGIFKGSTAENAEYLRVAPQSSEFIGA

The molecule `NCCC(=O)N[C@@H](Cc1cc(O)c(O)c(SC[C@H](N)C(=O)N[C@@H](CCC(=O)O)C(=O)O)c1)C(=O)O` returned an inhibition of 0. Regarding `NCCC(=O)NCCc1cc(O)c(O)c(SC[C@H](N)C(=O)N[C@@H](CCC(=O)O)C(=O)O)c1`, the inhibition was determined as 52.1.

As for `NCCc1cc(O)c(O)c(Sc2nc[nH]n2)c1`, the inhibition stood at 15.9.

Regarding `N[C@@H](CSc1cc(C[C@H](N)C(=O)O)cc(O)c1O)C(=O)O`, the inhibition was 2.9. The same measure for `NCCc1cc(O)c(O)c(Sc2nc3ccccc3[nH]2)c1`: 15.1. Then `N[C@@H](Cc1cc(O)c(O)c(SC[C@H](N)C(=O)NCC(=O)O)c1)C(=O)O`, with 2.5; and `N[C@@H](Cc1cc(O)c(O)c(Sc2nc[nH]n2)c1)C(=O)O`, with 17; and `NCCc1cc(O)c(O)c(SC[C@H](N)C(=O)NCC(=O)O)c1`, with 19.6. `NCCC(=O)NCCc1cc(O)c(O)c(SC[C@H](NC(=O)CC[C@H](N)C(=O)O)C(=O)NCC(=O)O)c1` returned an inhibition of 4.9.

In turn, `NCCC(=O)NCCc1cc(O)c(O)c(SC[C@H](N)C(=O)O)c1` displayed an inhibition of 12.1. The same measure for `NCCC(=O)N[C@@H](Cc1cc(O)c(O)c(SC[C@H](NC(=O)CC[C@H](N)C(=O)O)C(=O)NCC(=O)O)c1)C(=O)O`: 2.2; for `NCCC(=O)N[C@@H](Cc1cc(O)c(O)c(SC[C@H](N)C(=O)NCC(=O)O)c1)C(=O)O`: 0; for `NCCc1cc(O)c(O)c(SC[C@H](N)C(=O)O)c1`: 16.3.

In the case of `NCCc1cc(O)c(O)c(SC[C@H](N)C(=O)N[C@@H](CCC(=O)O)C(=O)O)c1`, the inhibition turned out to be 9.3.

`NCCC(=O)NCCc1cc(O)c(O)c(SC[C@H](N)C(=O)NCC(=O)O)c1` returned an inhibition of 7.9. Then `N[C@@H](Cc1cc(O)c(O)c(SC[C@H](N)C(=O)N[C@@H](CCC(=O)O)C(=O)O)c1)C(=O)O`, with 0; and `N[C@@H](Cc1cc(O)c(O)c(Sc2nc3ccccc3[nH]2)c1)C(=O)O`, with 11.7.
